In article PMC11784839, “Monoaminergic neurotransmitters are bimodal effectors of tau aggregation” (Science Advances, 2025):
“Also recorded” adds a separate entry of the source. Like-named read-outs stand apart in the source and are kept apart here.

Tests used:
tau [1] = target: T1, tau (Homo sapiens, UniProt P10636); assay: MCE Phenols Library screening, tau biosensor cell seeding assay (AvZ); format: cell-based; settings: for AvZ (average z score of seeding, SDs from the mean level of seeding): 10 μM phenol in cell cultures, AD brain homogenate preincubated 16 hours, two biological replicates, positive = catalyzes seeding, negative = inhibits; for Z repl 1 / Z Repl 2: Z score; for Z repl 1 / raw data 1: replicate 1; for Z Repl 2 / raw data 2: replicate 2; for raw data 1 / raw data 2: puncta; for av Z: average Z score of the two replicates, tau seeding
Target sequence in this assay (P10636 623-695 limits assumed): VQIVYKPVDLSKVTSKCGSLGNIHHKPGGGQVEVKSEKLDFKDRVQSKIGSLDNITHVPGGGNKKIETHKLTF

tau [2] = target: T1, tau; assay: Tau biosensor dose titrations (HEK293T tau biosensor cells seeded with AD brain homogenate);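 as to all read-outs here: AD brain homogenate preincubated 16 h with compound, then transfected into tau biosensor cells, seeding read as tau puncta counted by imaging, normalized to cell confluence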; format: cell-based; settings: for effect on seeding at 10 μM: 10 μM final concentration on cells; for effect on seeding at 10 μM / effect on seeding at 50 μM: AD brain homogenate seed; for effect on seeding, concentrations ranging from 10 to 100 μM: AD brain homogenate seed (Fig. 2A); for dose-dependent effect of NT on tau seeding: AD brain homogenate pretreated with indicated amounts of NT (Fig. 3A); for effect on seeding at 50 μM: 50 μM final concentration on cells
VMAT2 = settings: cited from earlier work
[3] = target: T2, P301S 4R1N tau fused with YFP (Homo sapiens, UniProt P10636, P618S)
T2 sequence (P10636 1-412 isoform P10636-7 P272S): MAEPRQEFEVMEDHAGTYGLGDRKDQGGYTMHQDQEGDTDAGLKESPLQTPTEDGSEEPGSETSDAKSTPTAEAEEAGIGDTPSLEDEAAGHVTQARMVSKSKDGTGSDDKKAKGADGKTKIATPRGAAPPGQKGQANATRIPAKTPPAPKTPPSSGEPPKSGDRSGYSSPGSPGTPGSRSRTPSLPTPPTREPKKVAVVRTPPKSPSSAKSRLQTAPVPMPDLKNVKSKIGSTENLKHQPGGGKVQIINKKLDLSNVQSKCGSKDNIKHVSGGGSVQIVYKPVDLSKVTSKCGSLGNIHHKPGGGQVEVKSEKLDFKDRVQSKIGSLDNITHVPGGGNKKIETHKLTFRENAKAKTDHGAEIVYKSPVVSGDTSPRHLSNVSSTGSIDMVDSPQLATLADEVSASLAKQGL

[4] = target: tau fibrils purified from AD brain (Homo sapiens, UniProt P10636); assay: Quantitative electron microscopy (qEM) of fibril disaggregation; format: biochemical; settings: 75 μM; for effect on tau fibril load (qEM): 24-hour treatment, vs no inhibitor control; for reduction of tau fibril counts: preincubated 24 hours, N = 96 images
Chain of tau fibrils purified from AD brain (P10636 623-695 limits assumed): as the sequence (P10636 623-695 limits assumed) above

[5] = target: T2, P301S 4R1N tau fused with YFP; assay: cell-based
[6] = test system: intracellular DA concentrations; settings: cited from earlier work
[7] = AD brain homogenate diluted to […] ptau, read-out: IC50 low tau load

Row | SMILES | AvZ (average z score of seeding, SDs from the mean level of seeding) (tau [1]) | effect on seeding at 10 μM (tau [2]) | Z repl 1 (tau [1]) | Z Repl 2 (tau [1]) | av puncta (tau [1]; average of raw data 1 and 2) | raw data 1 (tau [1]) | raw data 2 (tau [1]) | effect on seeding at 50 μM (tau [2]) | dose-dependent effect of NT on tau seeding (tau [2]) | other results
1 | NC(Cc1ccc(O)c(O)c1)C(=O)O (racemic) [DL-DOPA] | 1.763 | seeding catalyst; also recorded: catalyzed | – | – | – | – | – | – | – | AvZ (average z score of seeding, SDs from the mean level of seeding) (tau [1]; listed as DL-dopa): 1.76; effect on seeding, concentrations ranging from 10 to 100 μM (tau [2]): dose-dependent inhibitor at higher concentrations
2 | NC(Cc1cccc(O)c1)C(=O)O (racemic) [DL-m-Tyrosine] | 1.911 | – | 1.84 | 1.982 | 41183.3 | 48433.9 | 33932.7 | – | – | effect on seeding, concentrations ranging from 10 to 100 μM (tau [2]): catalyzed seeding independently of dose at all concentrations tested
3 | O=C(O)Cc1c[nH]c2ccc(O)cc12 [5-Hydroxyindole-3-acetic acid] | -0.466 | – | -0.16 | -0.771 | – | 24430.2 | 4529.6 | – | inhibited tau seeding at levels comparable to EP | av puncta (tau [1]; average puncta of the two replicates): 14479.9
4 | COc1cc(CC(=O)O)ccc1O [Homovanillic acid] | -0.054 | – | -0.336 | 0.228 | 18758.8 | 22315.8 | 15201.8 | – | – | AvZ (average z score of seeding, SDs from the mean level of seeding) (tau [1]; listed as HVA): −0.054; effect on tau fibril load (qEM) ([4]; listed as HVA): significant reduction in fibrils, though to a lesser extent
5 | N[C@@H](Cc1ccc(O)c(O)c1)C(=O)O [L-dopa] | – | – | – | – | – | – | – | – | – | increase of intracellular DA concentrations [6]: ~10 fold; intracellular DA concentration in neurons treated with levodopa [6]: up to 17 μM; effect on tau fibril load (qEM) [4]: significantly reduce AD tau fibrils; reduction of tau fibril counts [4]: ~75%; IC50 (tau [2]; [7]): 1.9 µM
6 | NCCc1c[nH]c2ccc(O)cc12 [serotonin, 5-hydroxytryptamine] | – | – | – | – | – | – | – | – | no significant inhibitory effects on tau seeding | Kd (VMAT2; read-out: dissociation constant (Kd) for VMAT2): 3.3 µM

Second part, led by results:

Row | AvZ (average z score of seeding, SDs from the mean level of seeding) (tau [1]) | effect on seeding at 10 μM (tau [2]) | Z repl 1 (tau [1]) | Z Repl 2 (tau [1]) | av puncta (tau [1]; average of raw data 1 and 2) | raw data 1 (tau [1]) | raw data 2 (tau [1]) | effect on seeding at 50 μM (tau [2]) | SMILES | dose-dependent effect of NT on tau seeding (tau [2]) | other results
7 | – | inhibited | – | – | – | – | – | – | NCCc1ccc(O)c(O)c1 [DA, dopamine, reference compound] | potently and dose-dependently inhibited tau seeding | affinity for VMAT2 relative to 5-HT (VMAT2): comparable or slightly lower affinity for VMAT2 than 5-HT; effect of lower doses on seeding in dopaminergic neurons ([3]; around 1 μM, high tau load): catalytic effect on seeding; effect on seeding in dopaminergic neurons at 50 μM ([3]; final concentration 50 μM on cells): inhibited seeding; effect on tau fibril load (qEM) [4]: significantly reduce AD tau fibrils; reduction of tau fibril counts [4]: about 50%; IC50 [5]: 16.6 µM; IC50 (tau [2]; [7]): 3.6 µM; IC50 (tau [2]; AD brain homogenate with ptau […], read-out: IC50 high tau load): 9.8 µM
8 | 3.115 | catalyzed seeding | – | – | – | – | – | inhibited seeding | CC(C)=CCc1c(O)cc2oc3cc(O)c(O)c(CCC(C)(C)O)c3c(=O)c2c1O [Garcinone C] | – | –
9 | – | catalyzed seeding | – | – | – | – | – | inhibited seeding | COc1c(O)cc2oc3cc(O)c(CC=C(C)C)c(O)c3c(=O)c2c1CCC(C)(C)O [garcinone D] | – | av Z (tau [1]): 0.598
10 | – | catalyzed seeding | 0.092 | 0.543 | 23005 | 27448.5 | 18561.5 | inhibited seeding | COc1ccc(-c2cc(=O)c3c(O)cc(O)c(-c4cc(-c5cc(=O)c6c(O)cc(OC)cc6o5)ccc4OC)c3o2)cc1 [sciadopitysin] | – | av Z (tau [1]): 0.317
